# Source: patent EP4653443A1, “STEREOISOMER AND DEUTERATED DERIVATIVE OF PYRAZOLOQUINAZOLINE COMPOUND AND USE” (Phil Rivers Technology Co., Ltd, priority 2023, dated 2024)
# Key:
# Caco-2 cells = test: Permeability and transporter substrate test in Caco-2 cells (ABBA); format: in vitro ADME; settings: Caco-2
# Method: (§1) Apparent permeability coefficient (Papp, cm/s) and efflux ratio were calculated using Microsoft Excel.
# [1] = as above; format: in vitro ADME; settings: human, pH 7.4; for Papp A→B at 2 h, 5 µM: Caco-2, A to B, read-out: Average Papp PappA-B; for Papp B→A at 2 h, 5 µM: Caco-2, B to A, read-out: Average Papp PappB-A; for efflux ratio at 2 h, 5 µM: Caco-2, Papp(B-A)/Papp(A-B), read-out: Efflux Rate (ERa)
# Method: as §1
# [2] = Pharmacokinetic study in mice (IV and PO, plasma LC-MS/MS); settings: PO 5 mg/kg vs IV 2 mg/kg
# Method: (§4) The objective of this study is to investigate the pharmacokinetic properties of the disclosed compounds after tail vein intravenous injection (IV) and oral administration (PO) in female CD1 mice. Plasma was sampleed at 0, 0.083, 0.25, 0.5, 1, 2, 4, 7 and 24 hours post-dosing, and the drug concentrations in plasma at different time points were detected by LC-MS/MS, and the relevant pharmacokinetic parameters were calculated using WinNonlin software.
# (§5) Experimental female CD1 mice were purchased from SPF Laboratory Animal Technology Co., Ltd., aged 6-8 weeks with body weights of 20-30 g. The female CD1 mice were housed in a controlled environment (set temperature at 20-25°C and relative humidity at 40-70%). A 12-hour light/12-hour dark cycle was maintained unless interrupted by study-related events.
# (§6) Compound solutions are prepared in an ultra-clean workbench and prepared immediately before use, and mixed thoroughly prior to use to ensure formulation homogeneity.
# (§7) Vehicle composition: 10% DMSO+90% (20%SBE-β-CD) Table 4. Doses Used in IV Administration
# (§8) Vehicle composition: 10% DMSO + 90% (20%SBE-β-CD) Table 5. Doses Used in PO Administration
# (§9) Vehicle composition: 0.5% MC + 1% Tween-20 Table 6. Doses Used in PO Administration
# (§10) Prior to the experiment, the animals were randomly grouped. The mice were fasted for 12 hours before drug administration, and free feeding was resumed 4 hours after administration.
# (§11) All blood samples were transferred into plastic microcentrifuge tubes containing anticoagulant (EDTA-K2), and then centrifuged at 4000 g for 5 minutes at 4°C. The supernatant was transferred into a microcentrifuge tube without anticoagulant, and the plasma was stored in a -75±15°C refrigerator until detection.
# (§12) The blood samples were purified by HPLC and analyzed by mass spectrometry to obtain the plasma concentration-time curve of the disclosed compound.
# (§13) The pharmacokinetic parameters were estimated by non-compartmental model method (calculated by Phoenix WinNonlin software).
# [3] = Metabolic stability in liver microsomes (human); format: in vitro ADME; settings: for Residual Amount (%) 15 min / Residual Amount (%) 30 min / Residual Amount (%) 45 min / Residual Amount (%) 60 min: Human, first line of pair
# Method: (§2) For negative samples, add 80µL of PBS (100mM, pH = 7.4) solution. Vortex at 800 rpm for 10 seconds, then pre-incubate in a 37°C water bath for 10 minutes. • 4) After pre-incubation, add 2 µL of control drug or test compound to each well to initiate the reaction. The reaction is carried out in a 37°C water bath at 60 rpm. • 5) At 0.5, 15, 30, 45, and 60 minutes, take 50 µL of the reaction system from each well and add it to 200 µL of cold methanol solution containing the internal standard to terminate the reaction. • 6) Mix thoroughly and centrifuge at 4000 rpm at 4°C for 30 minutes. • 7) Take 100µL of supernatant and mix with 100µL ultrapure water for liquid-mass analysis. *Internal standards: 50nM alprazolam, 50nM labetalol and 100nM ketoprofen
# (§3) The internal standard method is adopted, and the ratio of the sample peak area to the internal standard peak area is used to calculate the residual percentage (taking the ratio of the sample peak area to the internal standard peak area at 0.5 minutes as 100%).
# [4] = Metabolic stability in liver microsomes (mouse); format: in vitro ADME; settings: for Residual Amount (%) 15 min / Residual Amount (%) 30 min / Residual Amount (%) 45 min / Residual Amount (%) 60 min: Mouse, first line of pair
# Method: as §2, §3
# [5] = system: pancreatic cancer cell line (PSN1); test: Proliferation inhibitory activity on cell line PSN1 (CellTiter-Glo, 72 hours); format: cell-based; settings: for IC50: Homo sapiens, PSN1 cell proliferation; for Max Inhibition Percentage: PSN1 cells
# Method: • a) Adherent cells need to be digested and centrifuged, while suspension cells can be directly centrifuged; • b) Resuspend with complete culture medium and count using an automatic cell counter; • c) Plate 6,000 cells per well for PSN1, and dilute the cell suspension to the required density; • d) Add 100 µL of cells per well, and culture overnight at 37°C in a 5% CO2 incubator to stabilize and balance the cells.
# • a) Prepare the compound with DMSO as a solution of 200-fold final concentration; • b) Dilute the 200-fold compound to a 3-fold final concentration with complete culture medium; • c) Add 50 µL of the compound per well, use wells with the same volume of culture medium as controls, and continue culturing in a 37°C, 5% CO2 incubator for 72 hours.
# • a) Equilibrate the cell plate and CTG reagent to room temperature; • b) Add 30 µL of CellTiter-Glo® reagent per well; • c) Incubate at room temperature for 15 minutes; • d) Detect with a microplate reader.
# • 1) Calculate IC50 using GraphPad Prism 8; • 2) %Inh = (1-(Raw data - Meanmin) / (Meanmax - Meanmin))×100; • 3) Meanmax is the positive control well with only cells and the same volume of culture medium; • 4) Meanmin is the negative control well with only culture medium; • 5) Raw data refers to the signal values of wells with added compounds. For two replicate wells, they are denoted as Raw1 and Raw2.
# [6] = Thermodynamic solubility test; format: physicochemical; settings: phosphate buffer, aqueous buffer, thermodynamic from solid, pH 7.4, 25°C
# Method: Weigh 7.098 g Na2HPO4 (Solution A) and dissolve in 500 mL ultrapure water via sonication; weigh 3.40 g KH2PO4 (Solution B) and dissolve in 250 mL ultrapure water via sonication. Slowly add Solution B dropwise to Solution A and adjust the pH to 7.40 ± 0.05.
# Shake at 1100 rpm, 25°C for 5 minutes; • i) Add 10 µL of the 1 mg/mL DMSO sample and 10 µL of buffer to 980 µL of methanol, then dilute 10-fold with methanol:water (1:1) as the standard sample for LC-MS/MS analysis.
# Solubility was calculated using Excel. Solubility(μM) = (Areafiltered × DFfiltered)/(Areastd × DFstd) × [std] × DFstd [formula]
# in vivo = settings: mouse, in vivo, iv, 2 mg/kg
# Method: as §4, §5, §6, §7, §8, §9, §10, §11, §12, §13
smiles,measurement,setting,value
CC(C)NCC(O)COc1cccc2ccccc12 (centres unmarked) [Propranolol],Classification Efflux Transporter Substrate,Caco-2 cells,Unlikely or Not (ERa<2)
same,"Papp A→B at 2 h, 5 µM",[1],22.3 ×10⁻⁶ cm/s
same,"Papp B→A at 2 h, 5 µM",[1],14.7 ×10⁻⁶ cm/s
same,"efflux ratio at 2 h, 5 µM",[1],0.66
C[C@H]1O[C@@H](O[C@H]2[C@@H](O)C[C@H](O[C@H]3[C@@H](O)C[C@H](O[C@H]4CC[C@@]5(C)[C@H](CC[C@@H]6[C@@H]5C[C@@H](O)[C@]5(C)[C@@H](C7=CC(=O)OC7)CC[C@]65O)C4)O[C@@H]3C)O[C@@H]2C)C[C@H](O)[C@@H]1O [Digoxin],Classification Efflux Transporter Substrate,Caco-2 cells,Probable (ERa ≧ 2)
same,"Papp A→B at 2 h, 5 µM",[1],0.94 ×10⁻⁶ cm/s
same,"Papp B→A at 2 h, 5 µM",[1],26.1 ×10⁻⁶ cm/s
same,"efflux ratio at 2 h, 5 µM",[1],27.8
NC(=O)c1nn(CCO)c2c1CCc1cnc(Nc3cc(N4CCN5CCC[C@@H]5C4)ccc3OC(F)(F)F)nc1-2 [CPD02],Classification Efflux Transporter Substrate,Caco-2 cells,Probable (ERa ≧ 2)
same,"Papp A→B at 2 h, 5 µM",[1],7.83 ×10⁻⁶ cm/s
same,"Papp B→A at 2 h, 5 µM",[1],23.8 ×10⁻⁶ cm/s
same,"efflux ratio at 2 h, 5 µM",[1],3.04
same,F,[2],38.0%
same,half-life,[3]; Human liver microsomes,21.4 min
same,microsomal CLint,[3]; Human liver microsomes,64.8 µL/min/mg
same,Residual Amount (%) 15 min,[3],54.16%
same,Residual Amount (%) 30 min,[3],32.53%
same,Residual Amount (%) 45 min,[3],22.97%
same,Residual Amount (%) 60 min,[3],13.71%
same,half-life,[4]; Mouse liver microsomes,31.5 min
same,microsomal CLint,[4]; Mouse liver microsomes,44 µL/min/mg
same,Residual Amount (%) 15 min,[4],56.76%
same,Residual Amount (%) 30 min,[4],39.33%
same,Residual Amount (%) 45 min,[4],30.29%
same,Residual Amount (%) 60 min,[4],26.56%
same,IC50,[5],67.6 nM
same,Max Inhibition Percentage,[5]; first column of this head,80.8
same,Max Inhibition Percentage,[5]; second column of this head,6.7
same,solubility at 24 h,[6],2.1 µg/mL
same,AUC(0-t),in vivo,404 ng·h/mL
same,Vd,in vivo,3.05 L/kg
same,clearance,in vivo,81.7 mL/min/kg
same,half-life,in vivo,81.6 min
"O=C(O)Cc1ccccc1Nc1c(Cl)cccc1Cl [Diclofenac, reference compound]",Residual Amount (%) 15 min,[3],10.78%
same,Residual Amount (%) 30 min,[3],5.62%
same,Residual Amount (%) 45 min,[3],3.65%
same,Residual Amount (%) 60 min,[3],2.93%
same,microsomal CLint at 2 µM,"[3]; pH 7.4, Human liver microsomes",194 µL/min/mg
same,Residual Amount (%) 15 min,[4],61.24%
same,Residual Amount (%) 30 min,[4],56.66%
same,Residual Amount (%) 45 min,[4],51.87%
same,Residual Amount (%) 60 min,[4],45.26%
same,microsomal CLint,"[4]; male, CD-1, pH 7.4, Mouse liver microsomes",67.6 µL/min/mg
NC(=O)c1nn(CCO)c2c1CCc1cnc(Nc3cc(N4CCN5CCC[C@H]5C4)ccc3OC(F)(F)F)nc1-2 [CPD03],F,[2],16.2%
same,IC50,[5],256 nM
same,Max Inhibition Percentage,[5]; first column of this head,73.6
same,Max Inhibition Percentage,[5]; second column of this head,-3.1
same,AUC(0-t),in vivo,433 ng·h/mL
same,Vd,in vivo,4.29 L/kg
same,clearance,in vivo,79.1 mL/min/kg
same,half-life,in vivo,226 min
COc1cc2nc(N3CCN(C(=O)c4ccco4)CC3)nc(N)c2cc1OC [Prazosin],"Papp A→B at 2 h, 5 µM",[1],8.97 ×10⁻⁶ cm/s
same,"Papp B→A at 2 h, 5 µM",[1],29.6 ×10⁻⁶ cm/s
